Assay results reported in patent publication US8372967B2, “Compounds and methods for modulating expression of GCCR” (Isis Pharmaceuticals, Inc., priority 2006, dated 2013).
Strand notation (5' to 3'): a small letter for the sugar, then the base; units joined by * are phosphorothioate-linked, units joined directly phosphodiester-linked; [ ] holds rarer units or linkages, { } end groups; capitals alone tell only the bases. e = 2'-O-(2-methoxyethyl) (MOE); l = locked nucleic acid (LNA); [5mC] = 5-methylcytosine; d = 2'-deoxy (DNA)

Key:
monkey GCGR mRNA = experiment: Antisense inhibition of GCGR in primary monkey hepatocytes (Table 80); format: cell-based; conditions: relative to untreated control cells
Experimental: Additional short antisense compounds targeted to a GCGR nucleic acid were tested for their effects on monkey GCGR mRNA in vitro. Cultured primary monkey hepatocytes were treated as described herein with 25, 50, 100 or 200 nM of short antisense compound. After the treatment period, RNA was isolated from the cells and GCGR mRNA levels were measured by quantitative real-time PCR, as described herein. GCGR mRNA levels were adjusted according to total RNA content as measured by RIBOGREEN®. Results are presented in Table 80 as percent reduction in GCGR mRNA, relative to untreated control cells.

DGAT2 mRNA = experiment: Antisense inhibition of DGAT2 in A10 cells, 75 nM (Table 81); format: cell-based, rat; conditions: approximately 24 hours
Experimental: Short antisense compounds targeted to a DGAT2 nucleic acid were tested for their effects on DGAT2 mRNA in vitro. Cultured A10 cells in a 96-well plate were treated with 75 nM of short antisense compound. After a treatment period of approximately 24 hours, RNA was isolated from the cells and DGAT2 mRNA levels were measured by quantitative real-time PCR, as described herein. DGAT2 mRNA levels were adjusted according to total RNA content as measured by RIBOGREEN®. Results are presented as percent inhibition of DGAT2, relative to untreated control cells in Table 81.

rat DGAT2 mRNA = experiment: Dose-dependent inhibition of DGAT2 in A10 cells (Tables 82, 83); format: cell-based
Experimental: Additional short antisense compounds targeted to DGAT2 mRNA were tested in vitro in a dose-response experiment. A10 cells were prepared as described above and treated with 6.25, 12.5, 25.0, 50.0, 100.0, and 200.0 nM short antisense compounds to determine if DGAT2 inhibition occurs in a dose-dependent manner. […] Results are presented as percent inhibition, relative to untreated control cells.
Additional short antisense compounds targeted to DGAT2 mRNA were tested in vitro. A10 cells were prepared as described above and treated with 0.62, 1.85, 5.56, 16.67, 50.0, and 150.0 nM short antisense compounds to determine if DGAT2 inhibition occurs in a dose-dependent manner. DGAT2 mRNA was measured using quantitative real-time PCR, as described herein. […] Results are presented as percent inhibition of rat DGAT2, relative to untreated control cells.

PTEN mRNA = PTEN mRNA levels in liver, kidney and fat, Balb/c mice, single i.p. 8 μmol/kg (Table 48); format: in vivo, mouse; conditions: 72 h, saline = 100
Description: Each dose group consisted of four animals. Shown in Table 46 are the sequences and motifs of the PTEN antisense compounds used in this study. Bolded residues indicate 2′-O-methoxyethyl moieties (2′-MOE) and italicized residues indicate Methyleneoxy BNA nucleotides. Each antisense compound comprises phosphorothioate linkages throughout. In addition, the cytosine residues in the gap of ISIS 384073 and in the wings of ISIS 392056, ISIS 392057, ISIS 392061 and ISIS 392063 are replaced with 5-methylcytosines. Antisense compounds target published PTEN nucleic acids, including Genbank Accession No. U92437.1 (SEQ ID
Mice were sacrificed 72 hours following injection to determine serum transaminase levels (Table 47); liver and spleen weights (Table 47); and PTEN mRNA levels in liver, kidney and fat (Table 48), according to procedures described herein and well know to one of ordinary skill in the art.

[1] = HbA1c status in ZDF rat (Table 72); format: in vivo; conditions: ZDF rat, 400 nM/kg i.p. once a week
Experimental: ISIS 388625, 388626 and control oligo ISIS 388628 were analyzed for their effect on ZDF rat plasma glucose levels and HbA1c. The leptin receptor deficient Zucker diabetic fatty (ZDF) rat is a useful model for the investigation of type 2 diabetes. Diabetes develops spontaneously in these male rats at ages 8-10 weeks, and is associated with hyperphagia, polyuria, polydipsia, and impaired weight gain, symptoms which parallel the clinical symptoms of diabetes (Phillips M S, et al., 1996, Nat Genet. 13, 18-19). Six week old ZDF rats were injected intraperitoneally with short antisense compound at a dose of 400 nM/kg once a week for twelve weeks. Data are illustrated in Tables 71 and 72.

GCGR mRNA = GCGR mRNA levels in liver and estimated ED50, C57/BL6 mice, single i.p. dose of MOE and methyleneoxy BNA gapmers (Tables 44, 45); format: in vivo, mouse; conditions: liver
Experimental: Eight-week old male C57/BL6 mice (Jackson Laboratory, Bar Harbor, Me.) were administered a single dose of GCGR antisense compound by intraperitonel (i.p.) injection at a concentration of 10, 3.2, 1, and 0.32 μmol·kg. Each dose group consisted of four animals. Shown in Table 43 are the sequences, motifs and conjugates of the GCGR antisense compounds used in this study. Bolded residues indicate 2′-O-methoxyethyl (2′-MOE) modifications and the italicized residues indicate methyleneoxy (4′-CH2—O-2′) BNA modifications. All antisense compounds comprise phosphorothioate internucleoside linkages throughout and each cytosine is replaced with 5-methylcytosine. GCGR antisense compounds target published GCGR nucleic acids, including Genbank Accession No. BC031885.1 (SEQ ID NO: 7).
To determine whether the phenotypic changes shown above correlated with a decrease in GCGR mRNA, treated animals were evaluated for levels of target mRNA in liver by RT, real time PCR according to methods described herein. Table 44 show results from direct comparisons of the antisense compounds targeting GCGR nucleic acid for their effect on target expression. Results are expressed as percent of saline control.

rat SGLT2 mRNA [2] = experiment: Rat SGLT2 mRNA in kidney, 1-10-1 gapmers, 250 nmol/kg (Table 66); format: in vivo
Experimental: The effect of the above 1-10-1 gapmers (see Table 64 above) on rat SGLT2 mRNA levels. Data are taken from four experiments in which male Sprague-Dawley rats (170-200 g) were dosed twice per week for three weeks with 250 nmol/kg given by intraperitoneal injection. Rats were sacrificed 48 hours following last administration and evaluated for SGLT2 mRNA levels in kidney. Target levels were determined by RT, real-time PCR as described by other examples herein. PCR results were normalized to an internal ISIS control.

rat SGLT2 mRNA [3] = experiment: Rat SGLT2 mRNA in kidney, 1-10-1 and 1-10-2 MOE gapmers, Sprague-Dawley rats (Table 63); format: in vivo
Description: 1-10-1 and 1-10-2 MOE gapmer antisense compounds, provided in Table 62, were designed to target different regions of the mouse or rat SGLT2 RNA. All short antisense compounds in Table 62 are chimeric oligonucleotides (“gapmers”) either 12 or 13 nucleotides in length, composed of a central “gap” segment consisting of ten 2′-deoxynucleotides, which are flanked on the 5′ side by a one-nucleoside “wing” and on the 3′ side by a two or one-nucleotide “wing”. […] All cytidine residues are 5-methylcytidines.
The short antisense compounds were analyzed for their effect on rat SGLT2 mRNA levels. Data are ranges taken from three experiments in which Male Sprague-Dawley rats (170-200 g) were dosed twice per week for three weeks with 450, 150 or 50 nmol/kg of either a 1-10-1 or 1-10-2 MOE gapmer given by intraperitoneal injection. Rats were sacrificed 48 hours following last administration and evaluated for SGLT2 mRNA levels in kidney. Target levels were determined by RT, real-time PCR as described by other examples herein. PCR results were normalized to an internal ISIS control.

mouse SGLT2 mRNA = experiment: Mouse SGLT2 mRNA in kidney, MOE versus Methyleneoxy BNA gapmers (Table 69); format: in vivo; conditions: Balb/c mouse kidney
Experimental: The effect of ISIS 3796921-10-1 MOE gapmer and ISIS 3886252-8-2 MOE gapmer are compared with the effect of ISIS 3921701-10-1 Methyleneoxy BNA Gapmer and ISIS 3921732-8-2 Methyleneoxy BNA Gapmer (see Table 69) on mouse SGLT2 mRNA levels in vivo. Data are taken from three experiments in which male 6-week old Balb/c mice were dosed twice per week for three weeks with 5, 25 and 125 nmol/kg of either the ISIS 3796921-10-1 MOE gapmer or the ISIS 3886252-8-2 MOE gapmer given by intraperitoneal injection. Mice were sacrificed 48 hours following last administration and evaluated for SGLT2 mRNA levels in kidney. Target levels were determined by RT, real-time PCR as described by other examples herein. PCR results were normalized to an internal ISIS control. The data are expressed as percent change (“+” indicates an increase, “−” indicates a decrease) relative to saline treated animals and are illustrated in Table 69.

[4] = 5 nmol/kg i.p. twice per week for three weeks
[5] = 25 nmol/kg i.p. twice per week for three weeks
[6] = 125 nmol/kg i.p. twice per week for three weeks

## 327131 (antisense eA*eT*eG*dT*dT*dG*dG*d[5mC]*d[5mC]*dG*dT*eG*eG*eT) [compound 327131]
Monkey GCGR mRNA; 25 nM
  percent reduction in GCGR mRNA: 0%
Monkey GCGR mRNA; 50 nM
  percent reduction in GCGR mRNA: −8%
Monkey GCGR mRNA; 100 nM
  percent reduction in GCGR mRNA: −36%
Monkey GCGR mRNA; 200 nM
  percent reduction in GCGR mRNA: −36%

## 372624 (antisense eT*eG*dG*dT*d[5mC]*dT*dT*dG*dT*dG*dA*dT*eT*eG) [compound 372624]
DGAT2 mRNA
  % Control: 56 % Control
Rat DGAT2 mRNA; 0.62 nM (Table 83)
  percent inhibition of rat DGAT2: 0%
Rat DGAT2 mRNA; 1.85 nM (Table 83)
  percent inhibition of rat DGAT2: 0%
Rat DGAT2 mRNA; 5.56 nM (Table 83)
  percent inhibition of rat DGAT2: 0%
Rat DGAT2 mRNA; 16.67 nM (Table 83)
  percent inhibition of rat DGAT2: 1%
Rat DGAT2 mRNA; 50 nM (Table 83)
  percent inhibition of rat DGAT2: 16%
Rat DGAT2 mRNA; 150 nM (Table 83)
  percent inhibition of rat DGAT2: 38%

## 384073 (antisense lG*lC*lT*dA*dG*d[5mC]*d[5mC]*dT*d[5mC]*dT*dG*dG*dA*lT*lT*lT) [compound 384073]
PTEN mRNA
  % PTEN mRNA levels in Fat: 77%
  % PTEN mRNA levels in Kidney: 74%
  % PTEN mRNA levels in Liver: 24%

## 388625 (eT*eG*dT*dT*d[5mC]*d[5mC]*dA*dG*d[5mC]*d[5mC]*e[5mC]*eA) [compound 388625]
[1]; Day 40
  Percentage HbA1c: 6.5%
[1]; Day 55
  Percentage HbA1c: 5.8%
[1]; Day 68
  Percentage HbA1c: 4.3%

## 388628 (eT*eA*dG*d[5mC]*d[5mC]*dG*d[5mC]*d[5mC]*d[5mC]*dA*e[5mC]*eA) [compound 388628]
[1]; Day 40
  Percentage HbA1c: 8.0%
[1]; Day 55
  Percentage HbA1c: 9.1%
[1]; Day 68
  Percentage HbA1c: 7.8%

## 396145 (ATGGCTTCTCCATCATATCC; 5-10-5 MOE gapmer, chemistry not fully specified) [compound 396145]
GCGR mRNA; 3.2 μmol/kg single i.p.
  GCGR mRNA levels: 33% of saline control
GCGR mRNA; 10 μmol/kg single i.p.
  GCGR mRNA levels: 8% of saline control

## 396147 (CTTGGGCATGCTCGTCAGTC; 5-10-5 MOE gapmer, chemistry not fully specified) [compound 396147]
GCGR mRNA; 3.2 μmol/kg single i.p.
  GCGR mRNA levels: 68% of saline control
GCGR mRNA; 10 μmol/kg single i.p.
  GCGR mRNA levels: 28% of saline control

## ISIS 381408: 1-10-1 MOE gapmer targeting SGLT2 mRNA (TACCGAACACCT; sugars from the 5' end e1 d10 e1, backbone and methylation of C not given here)
Rat SGLT2 mRNA [2]; 250 nmol/kg i.p. twice per week for three weeks, Sprague-Dawley rat kidney
  % change in SGLT2 expression relative to saline: −5%
Rat SGLT2 mRNA [2]; 250 nmol/kg twice per week for three weeks
  expression of SGLT2 in in vivo rat studies: Activity of ISIS 381408 has been shown

## ISIS 382675 (eT*dA*dG*d[5mC]*d[5mC]*dA*d[5mC]*d[5mC]*dA*dA*d[5mC]*eT*eG)
Rat SGLT2 mRNA [3]; 50 nmol/kg i.p. twice per week for three weeks
  % change in SGLT2 expression relative to saline: −50%
Rat SGLT2 mRNA [3]; 150 nmol/kg i.p. twice per week for three weeks
  % change in SGLT2 expression relative to saline: −65%
Rat SGLT2 mRNA [3]; 450 nmol/kg i.p. twice per week for three weeks
  % change in SGLT2 expression relative to saline: −80%

## ISIS 392170: 1-10-1 Methyleneoxy BNA Gapmer, SGLT2 (lT*dG*dT*dT*d[5mC]*d[5mC]*dA*dG*d[5mC]*d[5mC]*d[5mC]*lA)
Mouse SGLT2 mRNA; [4]
  SGLT2 mRNA, percent change relative to saline treated animals: −23%
Mouse SGLT2 mRNA; [5]
  SGLT2 mRNA, percent change relative to saline treated animals: −54%
Mouse SGLT2 mRNA; [6]
  SGLT2 mRNA, percent change relative to saline treated animals: −69%

## ISIS 392173: 2-8-2 Methyleneoxy BNA Gapmer, SGLT2 (lT*lG*dT*dT*d[5mC]*d[5mC]*dA*dG*d[5mC]*d[5mC]*l[5mC]*lA)
Mouse SGLT2 mRNA; [4]
  SGLT2 mRNA, percent change relative to saline treated animals: −44%
Mouse SGLT2 mRNA; [5]
  SGLT2 mRNA, percent change relative to saline treated animals: −57%
Mouse SGLT2 mRNA; [6]
  SGLT2 mRNA, percent change relative to saline treated animals: −75%
